Experimental data published in PubChem BioAssay AID2060505 (Molecular Pharmacology Branch, DTP, NCI, 2025).

Tested on: 633275-114-R-J1-PDC complex spheroids, viability
Assay: Anticancer human tumor 633275-114-R-J1-PDC patient-derived endometrial adenocarcinoma cell line growth inhibition [GQUAD]
Conditions: for IC50: curve of first compound; for viability, T/C: stronger effect = lower value
Method in brief: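 Tumor cells were grown as complex spheroids with HUVEC endothelial cells and mesenchymal stem cells as stroma. G-quadruplex stabilizers were combined with targeted agents over half-log dilutions from near the clinical Cmax, or from 10 microM.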

[1] = second compound 0.0316 µM, first compound 0.0316 µM
[2] = second compound 0.0316 µM, first compound 0.1 µM
[3] = second compound 0.0316 µM, first compound 0.316 µM
[4] = second compound 0.0316 µM, first compound 1 µM
[5] = second compound 0.0316 µM, first compound 3.16 µM
[6] = second compound 0.0316 µM, first compound 10 µM
[7] = second compound 0.1 µM, first compound 0.0316 µM
[8] = second compound 0.1 µM, first compound 0.1 µM
[9] = second compound 0.1 µM, first compound 0.316 µM
[10] = second compound 0.1 µM, first compound 1 µM
[11] = second compound 0.1 µM, first compound 3.16 µM
[12] = second compound 0.1 µM, first compound 10 µM
[13] = second compound 0.316 µM, first compound 0.0316 µM
[14] = second compound 0.316 µM, first compound 0.1 µM
[15] = second compound 0.316 µM, first compound 0.316 µM
[16] = second compound 0.316 µM, first compound 1 µM
[17] = second compound 0.316 µM, first compound 3.16 µM
[18] = second compound 0.316 µM, first compound 10 µM
[19] = second compound 1 µM, first compound 0.0316 µM
[20] = second compound 1 µM, first compound 0.1 µM
[21] = second compound 1 µM, first compound 0.316 µM
[22] = second compound 1 µM, first compound 1 µM
[23] = second compound 1 µM, first compound 3.16 µM
[24] = second compound 1 µM, first compound 10 µM
[25] = second compound 3.16 µM, first compound 0.0316 µM
[26] = second compound 3.16 µM, first compound 0.1 µM
[27] = second compound 3.16 µM, first compound 0.316 µM
[28] = second compound 3.16 µM, first compound 1 µM
[29] = second compound 3.16 µM, first compound 3.16 µM
[30] = second compound 3.16 µM, first compound 10 µM
[31] = second compound 10 µM, first compound 0.0316 µM
[32] = second compound 10 µM, first compound 0.1 µM
[33] = second compound 10 µM, first compound 0.316 µM
[34] = second compound 10 µM, first compound 1 µM
[35] = second compound 10 µM, first compound 3.16 µM
[36] = second compound 10 µM, first compound 10 µM
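Further: spheroids exposed to the agents for seven days.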
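Wherever viability, T/C is given: percent of DMSO vehicle control viability which is 100%.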

C=CCn1c(=O)c2cnc(Nc3ccc(N4CCN(C)CC4)cc3)nc2n1-c1cccc(C(C)(C)O)n1 + Cc1cnc(CNC(=O)c2c(=O)c3ccc(N4CCCN(C)CC4)nc3n3c2sc2ccccc23)cn1
IC50 (second compound 0.0316 µM): 129 nM | IC50 (second compound 0.1 µM): < 31.6 nM | IC50 (second compound 0.316 µM): < 31.6 nM | IC50 (second compound 1 µM): < 31.6 nM | IC50 (second compound 3.16 µM): < 31.6 nM | IC50 (second compound 10 µM): < 31.6 nM | viability, T/C [1]: 55.6% | viability, T/C [2]: 56% | viability, T/C [3]: 33.9% | viability, T/C [4]: 23.6% | viability, T/C [5]: 19.9% | viability, T/C [6]: 16.5% | viability, T/C [7]: 48.1% | viability, T/C [8]: 40% | viability, T/C [9]: 28.9% | viability, T/C [10]: 22.7% | viability, T/C [11]: 21.2% | viability, T/C [12]: 15.2% | viability, T/C [13]: 43.8% | viability, T/C [14]: 39.8% | viability, T/C [15]: 24.6% | viability, T/C [16]: 21.1% | viability, T/C [17]: 20.7% | viability, T/C [18]: 16.5% | viability, T/C [19]: 34.5% | viability, T/C [20]: 32.2% | viability, T/C [21]: 22.4% | viability, T/C [22]: 19.9% | viability, T/C [23]: 20.7% | viability, T/C [24]: 17.3% | viability, T/C [25]: 31.4% | viability, T/C [26]: 26.6% | viability, T/C [27]: 18.5% | viability, T/C [28]: 22.5% | viability, T/C [29]: 25% | viability, T/C [30]: 18.3% | viability, T/C [31]: 26.8% | viability, T/C [32]: 20.5% | viability, T/C [33]: 16.8% | viability, T/C [34]: 17.8% | viability, T/C [35]: 22.4% | viability, T/C [36]: 19.5%

CC(C)(O)C1CCC(Nc2ccc3ncc(-c4cccc(C(F)(F)F)c4)n3n2)CC1 (stereo unspecified) + Cc1cnc(CNC(=O)c2c(=O)c3ccc(N4CCCN(C)CC4)nc3n3c2sc2ccccc23)cn1
IC50 (second compound 0.0316 µM): 886 nM | IC50 (second compound 0.1 µM): < 31.6 nM | IC50 (second compound 0.316 µM): < 31.6 nM | IC50 (second compound 1 µM): < 31.6 nM | IC50 (second compound 3.16 µM): < 31.6 nM | IC50 (second compound 10 µM): < 31.6 nM | viability, T/C [1]: 64.2% | viability, T/C [2]: 66.3% | viability, T/C [3]: 64.7% | viability, T/C [4]: 48.2% | viability, T/C [5]: 22.2% | viability, T/C [6]: 32.5% | viability, T/C [7]: 52.1% | viability, T/C [8]: 52.7% | viability, T/C [9]: 44.5% | viability, T/C [10]: 39.9% | viability, T/C [11]: 19.4% | viability, T/C [12]: 26.1% | viability, T/C [13]: 46.1% | viability, T/C [14]: 42.3% | viability, T/C [15]: 45.5% | viability, T/C [16]: 35.8% | viability, T/C [17]: 18.6% | viability, T/C [18]: 22.3% | viability, T/C [19]: 43.8% | viability, T/C [20]: 43.5% | viability, T/C [21]: 42.6% | viability, T/C [22]: 34.6% | viability, T/C [23]: 16.5% | viability, T/C [24]: 19.8% | viability, T/C [25]: 38.3% | viability, T/C [26]: 40.4% | viability, T/C [27]: 39.7% | viability, T/C [28]: 28% | viability, T/C [29]: 0.11% | viability, T/C [30]: 7.92% | viability, T/C [31]: 30.7% | viability, T/C [32]: 33.9% | viability, T/C [33]: 30.4% | viability, T/C [34]: 15.6% | viability, T/C [35]: 0.2% | viability, T/C [36]: 0.19%

CCCS(=O)(=O)Nc1ccc(F)c(C(=O)c2c[nH]c3ncc(-c4ccc(Cl)cc4)cc23)c1F + Cc1cnc(CNC(=O)c2c(=O)c3ccc(N4CCCN(C)CC4)nc3n3c2sc2ccccc23)cn1
IC50 (second compound 0.0316 µM): 5340 nM | IC50 (second compound 0.1 µM): 3830 nM | IC50 (second compound 0.316 µM): 1460 nM | IC50 (second compound 1 µM): < 31.6 nM | IC50 (second compound 3.16 µM): < 31.6 nM | IC50 (second compound 10 µM): < 31.6 nM | viability, T/C [1]: 68.7% | viability, T/C [2]: 67.6% | viability, T/C [3]: 72.9% | viability, T/C [4]: 77% | viability, T/C [5]: 69.4% | viability, T/C [6]: 26.3% | viability, T/C [7]: 55.9% | viability, T/C [8]: 53.1% | viability, T/C [9]: 56.1% | viability, T/C [10]: 58.1% | viability, T/C [11]: 56.4% | viability, T/C [12]: 20.7% | viability, T/C [13]: 49% | viability, T/C [14]: 53.3% | viability, T/C [15]: 50.8% | viability, T/C [16]: 54% | viability, T/C [17]: 46.8% | viability, T/C [18]: 19.3% | viability, T/C [19]: 40.7% | viability, T/C [20]: 43.6% | viability, T/C [21]: 47.7% | viability, T/C [22]: 47.3% | viability, T/C [23]: 43.3% | viability, T/C [24]: 13.6% | viability, T/C [25]: 37.2% | viability, T/C [26]: 37.1% | viability, T/C [27]: 36.7% | viability, T/C [28]: 40.3% | viability, T/C [29]: 40.6% | viability, T/C [30]: 7.26% | viability, T/C [31]: 30.6% | viability, T/C [32]: 33.1% | viability, T/C [33]: 34% | viability, T/C [34]: 35.9% | viability, T/C [35]: 27.8% | viability, T/C [36]: 0.18%
